Among the data in ChEMBL document CHEMBL4507295 (2021) are residual activity and inhibition values, retold here.

For data set [1], the target named is Phosphatidylinositol 4,5-bisphosphate 3-kinase catalytic subunit beta isoform (Homo sapiens) (UniProt P42338). To be noted: Compound concentration 1000.0 nM.
Data set [2] concerns the target TGF-beta receptor type-1 (Homo sapiens) (UniProt P36897). To be noted: Compound concentration 1000.0 nM.
The target of data set [3] is voltage-gated sodium channel, site 2 (Rattus norvegicus, UniProt F1LQQ7+O08562+O88420+O88457+P04774+P04775+P08104+P15389+P15390+Q62968). In words: Inhibition of Sodium Channel, Site 2 at 10 µM in the Eurofins-Panlabs radioligand binding assay (Eurofins_assay_279510). The class given is protein assay. Further details: ligand concentration 5 nM, non-specific ligand with concentration 100 µM Veratridine, incubation time 60 min, incubation temperature 37 °C. To be noted: male, Wistar, rat whole brain (except cerebellum) membranes, probe [3H] Batrachotoxinin (radioligand, 5 nM), compound concentration 10 uM.

Data set [4] has as its target Histamine H4 receptor (Homo sapiens) (UniProt Q9H3N8). In words: Histamine H4 Eurofins-Panlabs radioligand binding assay. To be noted: Compound concentration 10.0 uM.
Data set [5] has as its target Calcitonin receptor (Homo sapiens) (UniProt P30988). In words: Inhibition of Calcitonin at 10 µM in the Eurofins-Panlabs radioligand binding assay (Eurofins_assay_213610). To be noted: Compound concentration 10.0 uM.
The target of data set [6] is Vasopressin V1a receptor (Homo sapiens) (UniProt P37288). In words: Vasopressin V1A Eurofins-Panlabs radioligand binding assay. The arrangement: ligand concentration 0.01 nM. To be noted: Compound concentration 10.0 uM.
In data set [7] the target is Somatostatin receptor type 5 (Homo sapiens) (UniProt P35346). In words: Somatostatin sst5 Eurofins-Panlabs radioligand binding assay. To be noted: Compound concentration 10.0 uM.
Data set [8] is filed under the species Homo sapiens. In words: Inhibition of Nicotinic Acetylcholine at compound concentration of 10.0 uM in the Eurofins-Panlabs radioligand binding assay (Eurofins_assay_258590). The class given is protein-complex assay. To be noted: Compound concentration 10.0 uM.
Data set [9] concerns the target D(1B) dopamine receptor (Homo sapiens) (UniProt P21918). In words: Dopamine D5 Eurofins-Panlabs radioligand binding assay. To be noted: Compound concentration 10.0 uM.
Data set [10] addresses Endothelin-converting enzyme 1 (Homo sapiens) (UniProt P42892). In words: Peptidase, Endothelin Converting Enzyme-1 (ECE-1) Eurofins-Panlabs enzyme assay. To be noted: Compound concentration 10.0 uM.
The target of data set [11] is Adenosine receptor A2a (Homo sapiens) (UniProt P29274). To be noted: Compound concentration 10.0 uM.
In data set [12] the target is Receptor-type tyrosine-protein phosphatase C (Homo sapiens) (UniProt P08575). In words: Inhibition of Protein Tyrosine Phosphatase, PTPRC (CD45) at 10 µM in the Eurofins-Panlabs enzyme assay (Eurofins_assay_190010). To be noted: Compound concentration 10.0 uM.
Sequence of Receptor-type tyrosine-protein phosphatase C (Homo sapiens) (P08575 whole entry): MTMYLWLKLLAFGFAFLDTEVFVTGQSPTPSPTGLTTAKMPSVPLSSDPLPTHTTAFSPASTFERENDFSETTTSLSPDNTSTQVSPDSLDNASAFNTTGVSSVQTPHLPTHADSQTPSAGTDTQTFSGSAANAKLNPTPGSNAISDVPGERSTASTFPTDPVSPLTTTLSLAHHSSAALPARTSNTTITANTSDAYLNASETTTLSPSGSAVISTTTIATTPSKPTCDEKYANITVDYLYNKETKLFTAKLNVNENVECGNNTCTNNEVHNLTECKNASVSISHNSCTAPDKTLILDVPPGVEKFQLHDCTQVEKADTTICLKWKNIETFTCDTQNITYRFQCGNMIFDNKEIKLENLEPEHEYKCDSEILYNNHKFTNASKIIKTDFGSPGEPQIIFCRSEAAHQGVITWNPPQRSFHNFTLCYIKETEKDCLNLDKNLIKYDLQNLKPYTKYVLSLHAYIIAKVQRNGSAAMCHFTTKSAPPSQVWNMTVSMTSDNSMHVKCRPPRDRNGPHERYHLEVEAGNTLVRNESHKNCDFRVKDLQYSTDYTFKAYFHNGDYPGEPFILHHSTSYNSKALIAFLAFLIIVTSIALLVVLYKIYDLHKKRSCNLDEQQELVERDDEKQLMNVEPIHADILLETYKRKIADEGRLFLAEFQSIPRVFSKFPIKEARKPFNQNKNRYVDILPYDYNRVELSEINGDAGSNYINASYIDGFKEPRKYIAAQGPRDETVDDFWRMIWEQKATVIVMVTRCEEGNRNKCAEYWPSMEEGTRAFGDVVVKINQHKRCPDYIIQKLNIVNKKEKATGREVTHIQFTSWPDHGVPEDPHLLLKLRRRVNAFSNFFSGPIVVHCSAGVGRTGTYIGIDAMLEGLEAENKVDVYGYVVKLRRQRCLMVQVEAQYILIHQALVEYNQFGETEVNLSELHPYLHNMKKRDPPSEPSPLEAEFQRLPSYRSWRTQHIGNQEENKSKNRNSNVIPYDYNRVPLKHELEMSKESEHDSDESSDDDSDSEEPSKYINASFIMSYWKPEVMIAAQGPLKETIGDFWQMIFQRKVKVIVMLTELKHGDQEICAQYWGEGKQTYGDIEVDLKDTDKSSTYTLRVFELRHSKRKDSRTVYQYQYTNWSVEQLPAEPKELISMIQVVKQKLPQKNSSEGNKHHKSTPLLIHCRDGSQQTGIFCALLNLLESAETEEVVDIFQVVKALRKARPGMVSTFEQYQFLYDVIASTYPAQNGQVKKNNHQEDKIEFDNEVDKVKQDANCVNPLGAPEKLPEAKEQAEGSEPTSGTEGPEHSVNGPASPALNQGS
Data set [13] has as its target Mu-type opioid receptor (Homo sapiens) (UniProt P35372). To be noted: Compound concentration 10.0 uM.
Data set [14] is filed under the species Rattus norvegicus. In words: Serotonin (5-Hydroxytryptamine) 5-HT2, Non-Selective Eurofins-Panlabs radioligand binding assay. It counts as protein assay. To be noted: Compound concentration 10.0 uM.
In data set [15] the target is Melanocortin receptor 4 (Homo sapiens) (UniProt P32245). In words: Inhibition of Melanocortin MC4 at 10 µM in the Eurofins-Panlabs radioligand binding assay (Eurofins_assay_251350). To be noted: Compound concentration 10.0 uM. The arrangement: ligand concentration 0.02 nM.
Data set [16] deals with T1, 5-hydroxytryptamine receptor 2C (Homo sapiens) (UniProt P28335).
T1 sequence (whole entry): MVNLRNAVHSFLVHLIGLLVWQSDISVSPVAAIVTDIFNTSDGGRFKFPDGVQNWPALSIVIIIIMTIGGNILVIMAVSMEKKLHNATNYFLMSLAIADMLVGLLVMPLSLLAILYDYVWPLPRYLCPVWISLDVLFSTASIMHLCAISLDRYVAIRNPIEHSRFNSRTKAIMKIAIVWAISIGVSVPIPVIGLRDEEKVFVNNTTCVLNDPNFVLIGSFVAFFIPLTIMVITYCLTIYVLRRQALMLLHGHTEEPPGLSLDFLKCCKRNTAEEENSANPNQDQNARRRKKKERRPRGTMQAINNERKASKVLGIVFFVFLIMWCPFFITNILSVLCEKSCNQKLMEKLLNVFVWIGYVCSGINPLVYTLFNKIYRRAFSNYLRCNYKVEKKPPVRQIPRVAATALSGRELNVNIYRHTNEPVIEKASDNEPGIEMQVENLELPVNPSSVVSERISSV
To be noted: Compound concentration 10.0 uM.

Data set [17] addresses Caspase-3 (Homo sapiens) (UniProt P42574). In words: Peptidase, CASP3 (Caspase 3) Eurofins-Panlabs enzyme assay. To be noted: Compound concentration 10.0 uM.
The species entered for data set [18] is Rattus norvegicus. In words: Serotonin (5-Hydroxytryptamine) 5-HT1, Non-Selective Eurofins-Panlabs radioligand binding assay. To be noted: Compound concentration 10.0 uM. It counts as protein assay.
For data set [19], the target named is monoamine oxidase MAO-B (Homo sapiens, UniProt P27338). In words: Inhibition of Monoamine Oxidase MAO-B at compound concentration of 10.0 uM in the Eurofins-Panlabs enzyme assay (Eurofins_assay_140120). To be noted: recombinant human MAO-B expressed in insect Hi5 cells, probe kynuramine (50 uM), compound concentration 10 uM. Further details: substrate with concentration 50 uM Kynuramine, incubation time 60 min, incubation temperature 37 C; call rule not given here.

In data set [20] the target is Peroxisome proliferator-activated receptor gamma (Homo sapiens) (UniProt P37231). In words: PPARgamma Eurofins-Panlabs radioligand binding assay. Further details: ligand concentration 5 nM, non-specific ligand with concentration 0.5 µM L-797773, incubation time 18 h, incubation temperature 15 °C. To be noted: Compound concentration 10.0 uM.
Data set [21] addresses D(3) dopamine receptor (Homo sapiens) (UniProt P35462). To be noted: Compound concentration 10.0 uM.
Data set [22] has as its target Polyunsaturated fatty acid 5-lipoxygenase (Homo sapiens) (UniProt P09917). In words: Lipoxygenase 5-LO Eurofins-Panlabs enzyme assay. To be noted: Compound concentration 10.0 uM.
For data set [23], the target named is Prostaglandin E2 receptor EP1 subtype (Homo sapiens) (UniProt P34995). In words: Prostanoid EP1 Eurofins-Panlabs radioligand binding assay. To be noted: Compound concentration 10.0 uM.
Sequence of Prostaglandin E2 receptor EP1 subtype (Homo sapiens) (P34995 whole entry): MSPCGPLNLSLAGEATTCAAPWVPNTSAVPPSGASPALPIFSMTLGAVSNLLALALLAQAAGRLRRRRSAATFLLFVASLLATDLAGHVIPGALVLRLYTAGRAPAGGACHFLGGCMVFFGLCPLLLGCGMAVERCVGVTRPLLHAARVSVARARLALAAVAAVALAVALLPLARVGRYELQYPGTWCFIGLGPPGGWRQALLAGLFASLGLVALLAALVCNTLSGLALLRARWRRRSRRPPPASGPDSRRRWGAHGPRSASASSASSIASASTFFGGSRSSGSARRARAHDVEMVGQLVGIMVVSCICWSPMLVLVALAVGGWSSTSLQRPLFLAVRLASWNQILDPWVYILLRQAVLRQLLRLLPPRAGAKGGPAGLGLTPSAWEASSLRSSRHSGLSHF
Data set [24] deals with 5-hydroxytryptamine receptor 1B (Homo sapiens) (UniProt P28222). In words: Inhibition of Serotonin (5-Hydroxytryptamine) 5-HT1B at 10 µM in the Eurofins-Panlabs radioligand binding assay (Eurofins_assay_271200). To be noted: Compound concentration 10.0 uM.
Data set [25] addresses Adenosine Transporter (Cavia porcellus) (UniProt H0V4R7+H0UUG1+H0V3Z5). In words: Inhibition of Transporter, Adenosine at compound concentration of 10.0 uM in the Eurofins-Panlabs radioligand binding assay (Eurofins_assay_202000). It counts as protein assay. Further details: ligand concentration 0.5 nM, non-specific ligand with concentration 5 uM Nitrobenzylthioinosine, incubation time 30 min, incubation temperature 25 C. To be noted: Compound concentration 10.0 uM.

In data set [26] the target is Endothelin-1 receptor (Homo sapiens) (UniProt P25101). To be noted: Compound concentration 10.0 uM.
Sequence of Endothelin-1 receptor (Homo sapiens) (P25101 whole entry): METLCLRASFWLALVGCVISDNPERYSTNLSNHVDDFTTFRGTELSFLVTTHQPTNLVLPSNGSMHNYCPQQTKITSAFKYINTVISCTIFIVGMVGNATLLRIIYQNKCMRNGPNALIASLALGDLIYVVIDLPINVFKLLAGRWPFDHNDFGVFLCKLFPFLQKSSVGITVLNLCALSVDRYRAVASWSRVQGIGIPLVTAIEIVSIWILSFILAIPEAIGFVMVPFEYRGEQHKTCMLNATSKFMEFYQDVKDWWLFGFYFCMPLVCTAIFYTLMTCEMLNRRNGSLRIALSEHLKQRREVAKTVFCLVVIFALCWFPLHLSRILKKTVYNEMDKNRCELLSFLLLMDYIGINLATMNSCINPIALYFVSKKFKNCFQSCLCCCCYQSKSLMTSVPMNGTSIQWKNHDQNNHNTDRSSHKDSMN
Data set [27] addresses T2, Muscarinic acetylcholine receptor M5 (Homo sapiens) (UniProt P08912).
T2 sequence (whole entry): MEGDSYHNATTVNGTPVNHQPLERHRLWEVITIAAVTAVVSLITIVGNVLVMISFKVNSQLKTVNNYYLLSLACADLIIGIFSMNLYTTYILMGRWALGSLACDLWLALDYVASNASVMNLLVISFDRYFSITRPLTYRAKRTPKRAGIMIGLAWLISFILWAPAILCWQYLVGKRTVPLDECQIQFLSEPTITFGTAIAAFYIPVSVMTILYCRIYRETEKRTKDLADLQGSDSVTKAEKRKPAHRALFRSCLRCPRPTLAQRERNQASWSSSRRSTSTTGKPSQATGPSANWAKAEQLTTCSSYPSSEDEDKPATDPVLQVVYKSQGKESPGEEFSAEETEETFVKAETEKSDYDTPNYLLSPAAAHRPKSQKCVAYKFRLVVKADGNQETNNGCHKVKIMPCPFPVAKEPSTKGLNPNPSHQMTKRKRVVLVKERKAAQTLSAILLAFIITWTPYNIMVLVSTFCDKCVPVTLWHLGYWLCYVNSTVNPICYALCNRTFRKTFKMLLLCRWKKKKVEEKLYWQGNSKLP
In words: Inhibition of Muscarinic M5 at 10 µM in the Eurofins-Panlabs radioligand binding assay (Eurofins_assay_253010). Further details: ligand concentration 0.8 nM. To be noted: Compound concentration 10.0 uM.

Molecules are shown by their SMILES.

By residual activity is commonly meant the activity still measured, relative to the control. What is called inhibition is the change of the read-out against control, counted positive when it falls.

Sequence of D(1B) dopamine receptor (Homo sapiens) (P21918 whole entry): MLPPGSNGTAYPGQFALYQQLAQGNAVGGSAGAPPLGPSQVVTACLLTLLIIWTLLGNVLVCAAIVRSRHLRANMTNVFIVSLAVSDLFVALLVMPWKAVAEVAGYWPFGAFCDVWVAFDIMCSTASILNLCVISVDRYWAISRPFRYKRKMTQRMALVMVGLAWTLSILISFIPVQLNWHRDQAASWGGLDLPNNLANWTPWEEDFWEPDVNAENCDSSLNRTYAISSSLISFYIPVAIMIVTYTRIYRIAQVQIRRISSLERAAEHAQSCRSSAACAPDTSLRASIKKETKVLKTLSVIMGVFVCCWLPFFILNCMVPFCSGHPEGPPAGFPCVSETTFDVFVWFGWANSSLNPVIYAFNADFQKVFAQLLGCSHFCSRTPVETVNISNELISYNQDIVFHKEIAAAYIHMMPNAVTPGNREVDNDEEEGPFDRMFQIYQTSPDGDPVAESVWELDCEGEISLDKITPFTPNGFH
Sequence of Mu-type opioid receptor (Homo sapiens) (P35372 whole entry): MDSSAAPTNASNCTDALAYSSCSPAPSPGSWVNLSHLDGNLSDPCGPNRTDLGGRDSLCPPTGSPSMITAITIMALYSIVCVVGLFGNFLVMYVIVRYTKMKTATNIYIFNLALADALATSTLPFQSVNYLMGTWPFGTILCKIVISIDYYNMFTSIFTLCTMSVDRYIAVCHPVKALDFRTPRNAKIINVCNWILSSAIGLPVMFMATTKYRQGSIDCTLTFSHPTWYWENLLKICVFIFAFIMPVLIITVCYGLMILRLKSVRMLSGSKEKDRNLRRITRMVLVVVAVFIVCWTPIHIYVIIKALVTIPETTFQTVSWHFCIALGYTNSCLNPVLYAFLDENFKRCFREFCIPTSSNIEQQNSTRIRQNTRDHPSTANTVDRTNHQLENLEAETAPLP
Sequence of Phosphatidylinositol 4,5-bisphosphate 3-kinase catalytic subunit beta isoform (Homo sapiens) (P42338 whole entry, looked up, canonical isoform): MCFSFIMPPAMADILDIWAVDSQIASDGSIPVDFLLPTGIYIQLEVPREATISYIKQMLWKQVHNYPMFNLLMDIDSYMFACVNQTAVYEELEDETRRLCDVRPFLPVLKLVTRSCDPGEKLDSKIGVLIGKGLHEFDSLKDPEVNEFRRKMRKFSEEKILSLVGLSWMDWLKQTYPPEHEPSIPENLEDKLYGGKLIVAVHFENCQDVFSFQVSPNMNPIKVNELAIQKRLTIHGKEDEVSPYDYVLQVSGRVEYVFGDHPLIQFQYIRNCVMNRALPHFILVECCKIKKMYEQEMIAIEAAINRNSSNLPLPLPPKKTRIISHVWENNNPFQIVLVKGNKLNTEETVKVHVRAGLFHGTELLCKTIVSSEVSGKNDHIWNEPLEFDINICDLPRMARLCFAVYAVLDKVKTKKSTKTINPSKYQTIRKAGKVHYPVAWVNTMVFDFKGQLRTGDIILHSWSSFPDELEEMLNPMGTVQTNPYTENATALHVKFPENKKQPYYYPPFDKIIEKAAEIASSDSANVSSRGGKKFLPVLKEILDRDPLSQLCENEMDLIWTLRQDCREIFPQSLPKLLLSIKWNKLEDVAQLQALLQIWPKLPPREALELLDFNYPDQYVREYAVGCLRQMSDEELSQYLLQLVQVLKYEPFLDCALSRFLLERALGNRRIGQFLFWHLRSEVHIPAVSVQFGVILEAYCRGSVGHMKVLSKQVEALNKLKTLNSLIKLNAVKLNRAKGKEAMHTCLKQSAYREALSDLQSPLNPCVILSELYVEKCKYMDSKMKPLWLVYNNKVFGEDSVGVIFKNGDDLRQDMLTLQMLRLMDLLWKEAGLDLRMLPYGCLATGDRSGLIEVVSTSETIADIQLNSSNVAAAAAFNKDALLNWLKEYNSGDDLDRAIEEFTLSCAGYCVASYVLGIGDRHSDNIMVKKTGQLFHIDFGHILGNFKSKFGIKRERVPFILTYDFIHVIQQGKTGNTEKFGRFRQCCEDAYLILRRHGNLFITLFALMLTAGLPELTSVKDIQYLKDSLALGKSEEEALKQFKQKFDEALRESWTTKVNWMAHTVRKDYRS
Sequence of Caspase-3 (Homo sapiens) (P42574 29-175 limits assumed): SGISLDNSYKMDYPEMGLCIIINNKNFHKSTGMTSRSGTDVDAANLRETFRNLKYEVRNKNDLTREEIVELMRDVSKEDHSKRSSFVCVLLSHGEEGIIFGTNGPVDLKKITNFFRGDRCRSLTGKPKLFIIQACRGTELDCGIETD
Sequence of Caspase-3 (Homo sapiens) (P42574 176-277 limits assumed): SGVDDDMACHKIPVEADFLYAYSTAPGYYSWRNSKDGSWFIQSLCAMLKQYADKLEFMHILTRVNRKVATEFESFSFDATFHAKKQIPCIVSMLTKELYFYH
Sequence of TGF-beta receptor type-1 (Homo sapiens) (P36897 whole entry): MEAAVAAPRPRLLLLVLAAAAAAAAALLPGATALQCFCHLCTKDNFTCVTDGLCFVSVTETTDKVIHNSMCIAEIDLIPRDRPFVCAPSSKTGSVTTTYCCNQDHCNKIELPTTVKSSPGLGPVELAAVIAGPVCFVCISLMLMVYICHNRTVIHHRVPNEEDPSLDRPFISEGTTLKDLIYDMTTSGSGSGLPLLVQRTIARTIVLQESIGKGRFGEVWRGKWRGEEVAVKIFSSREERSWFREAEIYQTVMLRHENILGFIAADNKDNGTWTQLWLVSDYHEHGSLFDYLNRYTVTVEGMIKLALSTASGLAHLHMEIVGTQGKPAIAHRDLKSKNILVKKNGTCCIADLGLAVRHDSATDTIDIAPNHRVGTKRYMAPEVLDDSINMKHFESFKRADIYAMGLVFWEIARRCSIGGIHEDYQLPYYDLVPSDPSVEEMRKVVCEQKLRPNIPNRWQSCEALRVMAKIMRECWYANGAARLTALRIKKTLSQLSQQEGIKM

For the compound `N#CC1(c2ccccn2)CCN(Cc2cc(C(=O)N3CCCC3)c(=O)n3ccccc23)CC1`, the figures for the residual activity in data set [1] and in data set [2] were 100% and 72%, respectively.
`N#CC1(c2ccccn2)CCN(Cc2cc(C(=O)O)c(=O)n3ccccc23)CC1` [MSD-M1PAM]: the figures for the inhibition at 60 min, 10 µM in data set [3] and in data set [19] were 4% (not active) and -5% (not active), respectively. Moreover, the inhibition in data set [4] was 11%; in data set [5], -5%; in data set [6], -5%; in data set [7], -5%; in data set [8], -2%; in data set [9], 2%. For the same compound, the inhibition in [10] was 45%; in data set [11], 6%; in [12], 13%; in data set [13], 0%; in data set [14] it was 0%; in data set [15] it was -1%. The inhibition was -8% in data set [16]; 6% in data set [17]; 5% in data set [18]; 10% in data set [20]; -7.39% in [21]; -7% in data set [22]. For the same compound, the inhibition was 14% in [23]; -2% in [24]; 2% in [25]; -1% in data set [26]; 11% in data set [27].
